From patent US20080269202A1, “Novel 2,3-benzodiazepine derivatives and their use as antipsychotic agents” (Teva Pharmaceutical Industries Ltd., priority 2007, published 2008)

Test system: DOPA accumulation in eminentia mediana
Assay: DOPA accumulation in eminentia mediana after NSD-1015
Format: in vivo, Sprague-Dawley rats
Procedure: Acute administration of atypical antipsychotics results in enhanced accumulation of dihydroxyphenylalanine (DOPA) in the […] after the inhibition of DOPA decarboxylase. In contrast, DOPA accumulation is not altered by the typical antipsychotics (Andersson, G, Albinsson, A, Pettersson, G, Arzneimittelforschung. 1990, 40, 237; Gudelsky, G. A., Meltzer, H. Y. Neuropsychopharmacology, 1989, 2, 45). The effect of the compound of Example 121 on DOPA-accumulation was measured by analyzing the levels of DOPA in […]. […] (EM), were dissected out from the brains on ice-cold plates and kept at -70° C. until they were assayed for DOPA by HPL-EC. Statistical analysis was carried out using one-way ANOVA followed by Duncan test.

**Q.** What does the source list for `CNC(=O)N1N=C(c2ccc(N)cc2)c2cc(OC)c(OC)cc2C[C@H]1C` [Example 121]?
**A.** DOPA levels (pg/tissue block) (rat eminentia mediana, 10 mg/kg ip, mean ± SEM): 484 ± 34 pg/tissue block; DOPA levels (pg/tissue block) (rat eminentia mediana, 20 mg/kg ip, mean ± SEM): 652 ± 69 pg/tissue block; DOPA levels (pmol/mg prot) (rat eminentia mediana, 40 mg/kg ip, mean ± SEM): 94.0 ± 11.4 pmol/mg prot; effect on levels of DOPA in the EM of rats (result in words, vs saline): significantly increased
